Values joined by “and” are separate entries in the source; they are usually repeats but may differ in a detail not shown here. Identical values can stand only once. One block for each compound: values may come before it.
Assays:
H1975 cells = test: CCK-8 antiproliferation assay, H1975; conditions: for IC50: NCI-H1975, 48 h, read-out: IC50 (μM) H1975, CCK-8, 48 h, average ± SD of three independent experiments; for Inhibitory efficacy: H1975 cells
H460 cells = test: CCK-8 antiproliferation assay, H460; conditions: for Inhibitory efficacy: H460 cells; for IC50: NCI-H460, 48 h, read-out: IC50 (μM) H460, CCK-8, 48 h, average ± SD of three independent experiments
Experimental: (§1) The compounds were dissolved in DMSO to make a 20 μM stock solution and diluted to the concentration of working solutions with complete growth medium before administration.
(§2) Cells were seeded in 96-well plates: 3,000–5,000 cells/well in 100 ul. One day after seeding, the test compounds at concentration between 1.0 and 16.0 μ M or 0.1% DMSO (as control) were added to cells in triplicate. 48 h later, CCK-8 was added and incubated the plate for 1–4 h in the incubator. The absorbance at 450 nm were measured using a microplate reader (Bio-Tek).

PC-9 cells = test: CCK-8 antiproliferation assay, PC-9; conditions: for IC50: PC-9, 48 h, read-out: IC50 (μM) PC-9; for inhibition at 4 µM: PC-9, read-out: Inhibitory efficacy, PC-9, 4uM, single repeats (Repeat 1-3), given as fraction; for inhibition at 16 µM: PC-9, read-out: Inhibitory efficacy, PC-9, 16uM, single repeats (Repeat 1-3), given as fraction; for Inhibitory efficacy: single repeats (Repeat 1-3), given as fraction
Experimental: as §1, §2

A549 cells = test: CCK-8 antiproliferation assay, A549; conditions: for Inhibitory efficacy: A549 cells; for IC50: A549, 48 h, read-out: IC50 (μM) A549, CCK-8, 48 h, average ± SD of three independent experiments
wild-type EGFR = wild-type EGFR (Homo sapiens, UniProt P00533); test: EGFR kinase assay (ELISA); conditions: for IC50: IC50 (μM) EGFR, ELISA, 3 μmol/L ATP; for A450: raw ELISA absorbance
[1] = 1uM, given as fraction, Repeat 1-3
[2] = 2uM, given as fraction, Repeat 1-3
[3] = 4uM, given as fraction, Repeat 1-3
[4] = 8uM, given as fraction, Repeat 1-3
[5] = 16uM, given as fraction, Repeat 1-3
[6] = Homo sapiens, NCI-H460, read-out: Inhibitory efficacy, H460 cells, 2uM, given as fraction, Repeat 1-3
[7] = Homo sapiens, NCI-H460, read-out: Inhibitory efficacy, H460 cells, 8uM, given as fraction, Repeat 1-3
[8] = Homo sapiens, NCI-H460, read-out: Inhibitory efficacy, H460 cells, 16uM, given as fraction, Repeat 1-3
[9] = Homo sapiens, A549, read-out: Inhibitory efficacy, A549 cells, 2uM, given as fraction, Repeat 1-3
[10] = Homo sapiens, A549, read-out: Inhibitory efficacy, A549 cells, 4uM, given as fraction, Repeat 1-3
[11] = Homo sapiens, A549, read-out: Inhibitory efficacy, A549 cells, 8uM, given as fraction, Repeat 1-3
[12] = Homo sapiens, A549, read-out: Inhibitory efficacy, A549 cells, 16uM, given as fraction, Repeat 1-3

Chain of wild-type EGFR (P00533 25-1210): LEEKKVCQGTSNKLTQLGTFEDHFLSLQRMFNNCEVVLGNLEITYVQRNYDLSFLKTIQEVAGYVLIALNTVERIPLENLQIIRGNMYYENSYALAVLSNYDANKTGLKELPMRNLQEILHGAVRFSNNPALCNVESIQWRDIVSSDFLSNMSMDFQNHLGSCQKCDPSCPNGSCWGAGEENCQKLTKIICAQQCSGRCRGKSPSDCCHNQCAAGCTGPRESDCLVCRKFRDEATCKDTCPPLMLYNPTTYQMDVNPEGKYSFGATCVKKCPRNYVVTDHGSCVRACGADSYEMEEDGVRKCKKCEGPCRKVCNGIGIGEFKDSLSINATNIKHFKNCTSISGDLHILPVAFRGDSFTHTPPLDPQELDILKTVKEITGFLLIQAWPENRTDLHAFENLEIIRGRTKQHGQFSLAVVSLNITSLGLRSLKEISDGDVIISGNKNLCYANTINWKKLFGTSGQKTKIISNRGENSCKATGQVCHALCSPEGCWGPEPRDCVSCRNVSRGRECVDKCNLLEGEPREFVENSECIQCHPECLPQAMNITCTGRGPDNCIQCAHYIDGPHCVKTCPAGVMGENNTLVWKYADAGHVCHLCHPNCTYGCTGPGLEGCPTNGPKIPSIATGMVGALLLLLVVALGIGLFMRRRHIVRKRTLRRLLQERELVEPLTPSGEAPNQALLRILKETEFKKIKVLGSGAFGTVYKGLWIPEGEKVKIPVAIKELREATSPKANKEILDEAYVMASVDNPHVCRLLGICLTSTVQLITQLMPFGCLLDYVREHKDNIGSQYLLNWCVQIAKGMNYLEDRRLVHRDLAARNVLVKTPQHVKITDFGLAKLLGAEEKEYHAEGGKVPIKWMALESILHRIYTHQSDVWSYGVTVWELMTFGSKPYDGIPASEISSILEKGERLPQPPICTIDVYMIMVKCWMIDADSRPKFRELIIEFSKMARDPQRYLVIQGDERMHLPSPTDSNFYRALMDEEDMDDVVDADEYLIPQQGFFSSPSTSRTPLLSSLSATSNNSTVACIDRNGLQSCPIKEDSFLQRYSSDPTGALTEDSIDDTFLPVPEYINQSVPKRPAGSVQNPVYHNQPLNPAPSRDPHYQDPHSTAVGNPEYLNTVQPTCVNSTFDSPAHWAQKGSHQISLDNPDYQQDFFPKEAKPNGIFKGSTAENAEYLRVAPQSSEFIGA

- IC50 (H1975 cells; Homo sapiens): 16.5 ± 3.53 µM
- IC50 (H460 cells; Homo sapiens): 18.5 ± 2 µM
- IC50 (PC-9 cells; Homo sapiens): 3.27 ± 0.14 µM
- IC50 (A549 cells; Homo sapiens): 4.88 ± 0.54 µM
- melting point: 83 to 86 °C
- inhibition at 0.0003 µM (wild-type EGFR; 0.3 nM, duplicate wells, calculated from A450): 17.1%
- Inhibition (wild-type EGFR; 0.3 nM, duplicate wells, calculated from A450, 0.0003 µM): 10.6583
- inhibition at 0.003 µM (wild-type EGFR; 3 nM, duplicate wells, calculated from A450): 21.5%
- Inhibition (wild-type EGFR; 3 nM, duplicate wells, calculated from A450, 0.003 µM): 11.5987
- inhibition at 0.03 µM (wild-type EGFR; 30 nM, duplicate wells, calculated from A450): 26.3%
- Inhibition (wild-type EGFR; 30 nM, duplicate wells, calculated from A450, 0.03 µM): 21.0031
- inhibition at 0.3 µM (wild-type EGFR; 300 nM, duplicate wells, calculated from A450): 29.7%
- Inhibition (wild-type EGFR; 300 nM, duplicate wells, calculated from A450, 0.3 µM): 21.3166
- inhibition at 3 µM (wild-type EGFR; 3000 nM, duplicate wells, calculated from A450): 70.9%
- Inhibition (wild-type EGFR; 3000 nM, duplicate wells, calculated from A450, 3 µM): 70.8464
- inhibition at 30 µM (wild-type EGFR; 30000 nM, duplicate wells, calculated from A450): 91.8%
- Inhibition (wild-type EGFR; 30000 nM, duplicate wells, calculated from A450, 30 µM): 93.4169
- IC50 (wild-type EGFR): 0.69 µM
Compound: COCCOc1cc2ncnc(Nc3cccc(-c4cn(-c5ccccc5F)nn4)c3)c2cc1OCCOC [e6, [6,7-Bis-(2-methoxy-ethoxy)-quinazolin-4-yl]-{3-[1-(2-fluoro-phenyl)-1H-[1,2,3]triazol-4-yl]-phenyl}-amine]
- Inhibitory efficacy (H460 cells; [1]): 0.0882 and 0.09728
- Inhibitory efficacy (H460 cells; [2]): 0.2957 and 0.2477
- Inhibitory efficacy (H460 cells; [3]): 0.4663 and 0.4358
- Inhibitory efficacy (H460 cells; [4]): 0.4163 and 0.4008
- Inhibitory efficacy (H460 cells; [5]): 0.4274 and 0.4066
- inhibition at 1 µM (H460 cells; Homo sapiens, NCI-H460, read-out: Inhibitory efficacy, H460 cells, 1uM, given as fraction, Repeat 1-3): 14.7%
- inhibition at 2 µM (H460 cells; [6]): 33.2%
- inhibition at 4 µM (H460 cells; Homo sapiens, NCI-H460, read-out: Inhibitory efficacy, H460 cells, 4uM, given as fraction, Repeat 1-3): 39.8%
- inhibition at 8 µM (H460 cells; [7]): 42.1%
- inhibition at 16 µM (H460 cells; [8]): 44.7%
- inhibition at 2 µM (PC-9 cells; Homo sapiens, PC-9, read-out: Inhibitory efficacy, PC-9, 2uM, single repeats (Repeat 1-3), given as fraction): 37.3%
- inhibition at 4 µM (PC-9 cells; Homo sapiens): 61.7%
- inhibition at 8 µM (PC-9 cells; Homo sapiens, PC-9, read-out: Inhibitory efficacy, PC-9, 8uM, single repeats (Repeat 1-3), given as fraction): 77.6%
- inhibition at 16 µM (PC-9 cells; Homo sapiens): 85%
- Inhibitory efficacy (PC-9 cells; PC-9, 2uM, 2 µM): 0.401 and 0.3548
- Inhibitory efficacy (PC-9 cells; PC-9, 4uM, 4 µM): 0.5712 and 0.6591
- Inhibitory efficacy (PC-9 cells; PC-9, 8uM, 8 µM): 0.783 and 0.7626
- Inhibitory efficacy (PC-9 cells; PC-9, 16uM, 16 µM): 0.8422 and 0.8588
- Inhibitory efficacy (A549 cells; [2]): 0.2224 and 0.3459
- Inhibitory efficacy (A549 cells; [3]): 0.572 and 0.5248
- Inhibitory efficacy (A549 cells; [4]): 0.6524 and 0.6253
- Inhibitory efficacy (A549 cells; [5]): 0.6986 and 0.7076
- inhibition at 2 µM (A549 cells; [9]): 25.8%
- inhibition at 4 µM (A549 cells; [10]): 45.7%
- inhibition at 8 µM (A549 cells; [11]): 63.5%
- inhibition at 16 µM (A549 cells; [12]): 69.8%

- IC50 (H1975 cells; Homo sapiens): 6.36 ± 4.21 µM
- IC50 (H460 cells; Homo sapiens): 15 ± 2.1 µM
- IC50 (PC-9 cells; Homo sapiens): > 100 µM
- IC50 (A549 cells; Homo sapiens): 3.77 ± 0.68 µM
- melting point: 105 to 108 °C
- IC50 (wild-type EGFR): 2.13 µM
- inhibition at 30 pM (wild-type EGFR; concentration 0.03 nM, one value per replicate column): 4.76%
- Inhibition (wild-type EGFR; concentration 0.03 nM, one value per replicate column, 3e-05 µM): 5.109
- inhibition at 0.0003 µM (wild-type EGFR; concentration 0.3 nM, one value per replicate column): 11.4%
- Inhibition (wild-type EGFR; concentration 0.3 nM, one value per replicate column, 0.0003 µM): 10.9489
- inhibition at 0.003 µM (wild-type EGFR; concentration 3 nM, one value per replicate column): 15.7%
- Inhibition (wild-type EGFR; concentration 3 nM, one value per replicate column, 0.003 µM): 10.9489
- inhibition at 0.03 µM (wild-type EGFR; concentration 30 nM, one value per replicate column): 21.1%
- Inhibition (wild-type EGFR; concentration 30 nM, one value per replicate column, 0.03 µM): 11.3139
- inhibition at 0.3 µM (wild-type EGFR; concentration 300 nM, one value per replicate column): 36.5%
- Inhibition (wild-type EGFR; concentration 300 nM, one value per replicate column, 0.3 µM): 39.9635
- inhibition at 3 µM (wild-type EGFR; concentration 3000 nM, one value per replicate column): 38.4%
- Inhibition (wild-type EGFR; concentration 3000 nM, one value per replicate column, 3 µM): 48.1752
- inhibition at 30 µM (wild-type EGFR; concentration 30000 nM, one value per replicate column): 78.1%
- Inhibition (wild-type EGFR; concentration 30000 nM, one value per replicate column, 30 µM): 77.5547
- A450 (wild-type EGFR; concentration 0.0001 nM): 0.787 and 0.697
- A450 (wild-type EGFR; concentration 0.03 nM): 0.757 and 0.669
- A450 (wild-type EGFR; concentration 0.3 nM): 0.715 and 0.637
- A450 (wild-type EGFR; concentration 3 nM): 0.688 and 0.637
- A450 (wild-type EGFR; concentration 30 nM): 0.654 and 0.635
- A450 (wild-type EGFR; concentration 300 nM): 0.557 and 0.478
- A450 (wild-type EGFR; concentration 3000 nM): 0.545 and 0.433
- A450 (wild-type EGFR; concentration 30000 nM): 0.295 and 0.272
Compound: COCCOc1cc2ncnc(Nc3cccc(-c4cn(-c5ccc(Br)cc5)nn4)c3)c2cc1OCCOC [e10, [6,7-Bis-(2-methoxy-ethoxy)-quinazolin-4-yl]-{3-[1-(4-bromo-phenyl)-1H-[1,2,3]triazol-4-yl]-phenyl}-amine]
- Inhibitory efficacy (H1975 cells; [1]): 0.3092 and 0.3364
- Inhibitory efficacy (H1975 cells; [2]): 0.3838 and 0.3364
- Inhibitory efficacy (H1975 cells; [3]): 0.4598 and 0.4892
- Inhibitory efficacy (H1975 cells; [4]): 0.5696 and 0.4885
- Inhibitory efficacy (H1975 cells; [5]): 0.5545 and 0.4835
- inhibition at 1 µM (H1975 cells; Homo sapiens, NCI-H1975, read-out: Inhibitory efficacy, H1975 cells, 1uM, given as fraction, Repeat 1-3): 39.4%
- inhibition at 2 µM (H1975 cells; Homo sapiens, NCI-H1975, read-out: Inhibitory efficacy, H1975 cells, 2uM, given as fraction, Repeat 1-3): 33.8%
- inhibition at 4 µM (H1975 cells; Homo sapiens, NCI-H1975, read-out: Inhibitory efficacy, H1975 cells, 4uM, given as fraction, Repeat 1-3): 51.4%
- inhibition at 8 µM (H1975 cells; Homo sapiens, NCI-H1975, read-out: Inhibitory efficacy, H1975 cells, 8uM, given as fraction, Repeat 1-3): 54.1%
- inhibition at 16 µM (H1975 cells; Homo sapiens, NCI-H1975, read-out: Inhibitory efficacy, H1975 cells, 16uM, given as fraction, Repeat 1-3): 67.4%
- Inhibitory efficacy (H460 cells; [2]): 0.07707 and 0.09653
- Inhibitory efficacy (H460 cells; [4]): 0.3228 and 0.2533
- Inhibitory efficacy (H460 cells; [5]): 0.4853 and 0.4952
- inhibition at 2 µM (H460 cells; [6]): 6.52%
- inhibition at 8 µM (H460 cells; [7]): 25.3%
- inhibition at 16 µM (H460 cells; [8]): 60.6%
- inhibition at 4 µM (PC-9 cells; Homo sapiens): 11.7%
- inhibition at 16 µM (PC-9 cells; Homo sapiens): 13.3%
- Inhibitory efficacy (PC-9 cells; PC-9, 4uM, 4 µM): 0.1333 and 0.0912
- Inhibitory efficacy (PC-9 cells; PC-9, 16uM, 16 µM): 0.1218 and 0.1916
- Inhibitory efficacy (A549 cells; [1]): 0.3506 and 0.4374
- Inhibitory efficacy (A549 cells; [2]): 0.4836 and 0.5124
- Inhibitory efficacy (A549 cells; [3]): 0.5136 and 0.5055
- Inhibitory efficacy (A549 cells; [4]): 0.5695 and 0.5326
- Inhibitory efficacy (A549 cells; [5]): 0.5501 and 0.5711
- inhibition at 1 µM (A549 cells; Homo sapiens, A549, read-out: Inhibitory efficacy, A549 cells, 1uM, given as fraction, Repeat 1-3): 35.9%
- inhibition at 2 µM (A549 cells; [9]): 51.4%
- inhibition at 4 µM (A549 cells; [10]): 50.2%
- inhibition at 8 µM (A549 cells; [11]): 55.8%
- inhibition at 16 µM (A549 cells; [12]): 59%

From article PMC8776995 (Frontiers in Chemistry, 2022)
